# According to publication PMC3079779 (Toxicology and applied pharmacology, 2011):
# “Also recorded” adds a separate entry of the source. Where two headings read alike, the source gives them in different places.
# Columns and labels:
# [1] = biological target: human KV1.3 voltage gated K+ channel (Homo sapiens, UniProt P22001); assay: KV1.3 thallium influx assay in KV1.3 stably transfected CHO DUKX cells; settings: for KV 1.3 IC50 / KV 1.3 Efficacy (inhibition of thallium influx as a % of positive control): thallium influx in KV1.3 cells; for KV 1.3 IC50: mean ± SD from two to three experiments; for Selectivity Fold (hERG over KV1.3): potency difference KV1.3 IC50 / hERG IC50, thallium influx assays; for KV 1.3 Efficacy (inhibition of thallium influx as a % of positive control): relative to 1 μM psoralen
# wild type U-2 OS cells = assay: FluxOR thallium influx assay in wild type; format: cell-based, human; settings: non-hERG transduced cells
# hERG channel [2] = biological target: T1, hERG channel (Homo sapiens, UniProt Q12809); assay: Automated whole cell patch clamp, hERG tail current in hERG CHO-K1 cells
# hERG channel [3] = biological target: T1, hERG channel
# hERG channel [4] = biological target: T1, hERG channel; assay: FluxOR thallium influx assay in hERG transduced U-2 OS cells; settings: for Confirmation Efficacy (inhibition of thallium influx as a % of positive control): confirmation study, hERG transduced cells, mean ± SD of three experiments; for IC50 in the thallium influx assay (QAC series follow-up): quaternary ammonium compound series and digitonin control, hERG cells
# hERG channel [5] = biological target: T1, hERG channel; remark: listed apart in the source
# KV1.3 versus hERG [6] = biological target: T2, KV1.3 versus hERG (Homo sapiens, UniProt P22001); assay: KV1.3 thallium influx assay in KV1.3 stably transfected CHO DUKX cells; settings: human
# in vitro = format: cell-based, human; settings: human, hERG transduced U-2 OS cells
# [7] = system: hERG transduced U-2 OS cells; assay: in vitro; format: cell-based, human; settings: for IC50: read-out: Cytotoxicity IC50 (cell viability, intracellular ATP content), up to 92 μM
# KV1.3 versus hERG [8] = biological target: T2, KV1.3 versus hERG; assay: in vitro
# [9] = automated whole cell patch clamp, hERG tail current, hERG CHO-K1 cells, room temperature
# [10] = 30-minute treatment, hERG transduced U-2 OS cells
# [11] = read-out: Patch clamp IC50, automated whole cell patch clamp, hERG tail current, hERG CHO-K1 cells, room temperature
# T2 sequence (P22001 whole entry): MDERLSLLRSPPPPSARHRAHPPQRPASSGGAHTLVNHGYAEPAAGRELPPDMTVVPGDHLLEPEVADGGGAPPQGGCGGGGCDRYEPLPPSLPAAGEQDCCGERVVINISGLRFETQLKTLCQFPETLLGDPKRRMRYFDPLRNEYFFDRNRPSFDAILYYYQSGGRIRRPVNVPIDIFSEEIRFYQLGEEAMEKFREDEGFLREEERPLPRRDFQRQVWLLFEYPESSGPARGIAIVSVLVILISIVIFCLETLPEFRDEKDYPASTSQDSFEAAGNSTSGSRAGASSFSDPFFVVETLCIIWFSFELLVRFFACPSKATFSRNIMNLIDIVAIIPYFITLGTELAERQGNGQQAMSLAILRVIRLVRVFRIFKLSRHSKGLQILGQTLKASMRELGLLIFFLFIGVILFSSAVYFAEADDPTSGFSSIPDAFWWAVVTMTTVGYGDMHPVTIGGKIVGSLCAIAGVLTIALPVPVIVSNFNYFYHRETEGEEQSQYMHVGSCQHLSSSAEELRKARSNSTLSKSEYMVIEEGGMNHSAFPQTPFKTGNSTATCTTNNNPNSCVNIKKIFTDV
# human KV1.3 voltage gated K+ channel, sequence (P22001 whole entry): as above
# T1 sequence (Q12809 whole entry): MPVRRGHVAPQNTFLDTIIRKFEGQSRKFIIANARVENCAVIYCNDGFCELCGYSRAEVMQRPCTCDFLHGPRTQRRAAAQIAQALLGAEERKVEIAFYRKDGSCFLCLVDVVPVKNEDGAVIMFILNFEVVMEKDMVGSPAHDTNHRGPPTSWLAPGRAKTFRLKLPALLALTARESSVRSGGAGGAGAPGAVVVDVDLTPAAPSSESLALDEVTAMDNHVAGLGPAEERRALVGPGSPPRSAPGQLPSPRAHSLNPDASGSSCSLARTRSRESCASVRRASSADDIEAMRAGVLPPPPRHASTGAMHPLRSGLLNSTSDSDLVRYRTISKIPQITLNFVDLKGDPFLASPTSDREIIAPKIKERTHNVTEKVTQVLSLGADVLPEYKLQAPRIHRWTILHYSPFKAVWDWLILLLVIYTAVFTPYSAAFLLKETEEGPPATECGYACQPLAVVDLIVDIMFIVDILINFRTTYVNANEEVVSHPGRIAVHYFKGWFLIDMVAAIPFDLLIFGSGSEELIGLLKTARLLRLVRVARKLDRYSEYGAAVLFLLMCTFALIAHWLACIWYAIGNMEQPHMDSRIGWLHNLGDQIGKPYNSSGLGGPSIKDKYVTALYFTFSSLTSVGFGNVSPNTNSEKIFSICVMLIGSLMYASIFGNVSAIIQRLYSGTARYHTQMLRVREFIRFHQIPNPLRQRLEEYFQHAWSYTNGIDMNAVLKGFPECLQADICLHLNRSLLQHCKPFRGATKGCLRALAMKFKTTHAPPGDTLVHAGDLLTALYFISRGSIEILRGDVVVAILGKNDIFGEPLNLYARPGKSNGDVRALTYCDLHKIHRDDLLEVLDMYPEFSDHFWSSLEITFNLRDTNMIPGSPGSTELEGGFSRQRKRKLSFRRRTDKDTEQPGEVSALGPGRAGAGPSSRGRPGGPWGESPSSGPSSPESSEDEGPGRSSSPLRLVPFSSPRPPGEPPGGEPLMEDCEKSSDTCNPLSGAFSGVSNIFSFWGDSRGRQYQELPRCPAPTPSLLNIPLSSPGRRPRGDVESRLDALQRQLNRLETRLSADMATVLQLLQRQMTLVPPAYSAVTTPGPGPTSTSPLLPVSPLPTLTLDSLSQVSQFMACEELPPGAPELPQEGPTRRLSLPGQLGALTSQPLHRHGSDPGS
compound,measurement,setting,value
"N=C(Nc1ccccc1)Nc1ccccc1 [1,3-diphenylguanidine]",KV 1.3 IC50,[1],Inactive
Nc1ccc2cc3ccccc3cc2c1 [2-aminoanthracene],Inhibition of thallium influx in parental (wild type) cells,wild type U-2 OS cells,inhibitory effect
same,IC50,hERG channel [2],> 100 µM
same,qHTS (two runs) Efficacy (inhibition of thallium influx as a % of positive control),hERG channel [3]; human,61 ± 3%
same,Confirmation Efficacy (inhibition of thallium influx as a % of positive control),hERG channel [4],67 ± 19%
"CCCCCCc1ccc(-c2ccc(C#N)cc2)cc1 [4-N-hexyl-4′-cyanobiphenyl, 4′-N-hexyl-4-biphenylcarbonitrile]","Confirmation IC50 (thallium influx, hERG)",hERG channel [3],Inactive
same,IC50,hERG channel [3],8.2 ± 2.6 µM
O=C([O-])c1c(Cl)c(Cl)c(Cl)c(Cl)c1-c1c2cc(Br)c(=O)c(Br)c-2oc2c(Br)c([O-])c(Br)cc12.[Na+].[Na+] [D&C red dye 27],Inhibition of thallium influx in parental (wild type) cells,wild type U-2 OS cells,inhibitory effect
same,IC50,hERG channel [5],> 100 µM
same,Confirmation Efficacy (inhibition of thallium influx as a % of positive control),hERG channel [3],173 ± 41%
C[N+](C)(C)Cc1ccccc1 [benzyltrimethylammonium chloride],Patch clamp IC50,hERG channel [2]; [9],inactive
same,IC50 in the thallium influx assay (QAC series follow-up),hERG channel [4],inactive
C[N+](C)(C)CCCCCCCCCC[N+](C)(C)C [decamethonium dibromide],Patch clamp IC50,hERG channel [2]; [9],inactive
same,IC50 in the thallium influx assay (QAC series follow-up),hERG channel [4],inactive
"C[C@@H]1CC[C@@]2(OC1)O[C@H]1[C@@H](O)[C@H]3[C@@H]4CC[C@H]5C[C@@H](O[C@@H]6O[C@H](CO)[C@H](O[C@@H]7O[C@H](CO)[C@@H](O)[C@H](O[C@@H]8OC[C@@H](O)[C@H](O)[C@H]8O)[C@H]7O[C@@H]7O[C@H](CO)[C@H](O)[C@H](O[C@@H]8O[C@H](CO)[C@@H](O)[C@H](O)[C@H]8O)[C@H]7O)[C@H](O)[C@H]6O)[C@H](O)C[C@]5(C)[C@H]4CC[C@]3(C)[C@H]1[C@@H]2C [digitonin, reference compound]",Inhibitory effect on hERG channel activity in the patch clamp experiment,hERG channel [2]; at 1 μM (the highest noncytotoxic concentration),no inhibitory effect
CCCCCCCCCCCC[N+](C)(C)CCOc1ccccc1 [domiphen bromide],selectivity ratio at 2 min,KV1.3 versus hERG [6],1.2
same,IC50,[1],5.2 ± 0.6 µM
same,Selectivity Fold (hERG over KV1.3),[1],no selectivity
same,KV 1.3 Efficacy (inhibition of thallium influx as a % of positive control),[1],102 ± 22%
same,IC50 at 30 min,in vitro,65 µM
same,Maximum inhibition of cell viability,[7]; [10],33%
same,IC50,hERG channel [2],1.5 µM
"Clc1ccc(COC(Cn2ccnc2)c2ccc(Cl)cc2Cl)cc1 (stereo not drawn) [econazole nitrate, reference compound]",IC50,[1],30 ± 2 µM
same,KV 1.3 Efficacy (inhibition of thallium influx as a % of positive control),[1],104 ± 10%
CN(C)c1ccc(C(=C2C=CC(=[N+](C)C)C=C2)c2ccccc2)cc1.CN(C)c1ccc(C(=C2C=CC(=[N+](C)C)C=C2)c2ccccc2)cc1.O=C(O)C(=O)O.O=C([O-])C(=O)O.O=C([O-])C(=O)O [malachite green oxalate],Selectivity Fold (hERG over KV1.3),[1],6.5 fold
same,KV 1.3 IC50,[1],either IC50 values >30 μM or were inactive
same,KV 1.3 Efficacy (inhibition of thallium influx as a % of positive control),[1],89%
same,Maximum inhibition of cell viability,[7],72%
same,IC50,[7]; [10],31 µM
same,IC50,hERG channel [2]; [11],1.9 µM
same,qHTS (two runs) Efficacy (inhibition of thallium influx as a % of positive control),hERG channel [3],97 ± 3%
same,Confirmation Efficacy (inhibition of thallium influx as a % of positive control),hERG channel [4],108 ± 7%
"Clc1ccc(C(c2ccccc2Cl)C(Cl)(Cl)Cl)cc1 (stereo not drawn) [o,p′-DDT, 1,1,1-trichloro-2-(2-chlorophenyl)-2-(4-chlorophenyl)ethane]",selectivity ratio,KV1.3 versus hERG [8],1.6
same,IC50,[1],35 µM
same,Selectivity Fold (hERG over KV1.3),[1],no selectivity
same,KV 1.3 IC50,[1],either IC50 values >30 μM or were inactive
same,KV 1.3 Efficacy (inhibition of thallium influx as a % of positive control),[1],61%
same,IC50,hERG channel [2],2.6 µM
same,qHTS (two runs) Efficacy (inhibition of thallium influx as a % of positive control),hERG channel [3]; human,56 ± 2%
same,Confirmation Efficacy (inhibition of thallium influx as a % of positive control),hERG channel [4],58 ± 8%
"C=C[C@H]1C[N@@]2CC[C@H]1C[C@@H]2[C@@H](O)c1ccnc2ccc(OC)cc12 [quinidine, reference compound]",KV 1.3 IC50,[1],either IC50 values >30 μM or were inactive; also recorded: Inactive
"COC(=O)[C@H]1[C@H]2C[C@@H]3c4[nH]c5cc(OC)ccc5c4CCN3C[C@H]2C[C@@H](OC(=O)c2cc(OC)c(OC)c(OC)c2)[C@@H]1OC [reserpine, reference compound]",selectivity ratio at 2 min,KV1.3 versus hERG [6],11.8
same,IC50,[1],58 ± 18 µM
same,KV 1.3 IC50,[1],either IC50 values >30 μM or were inactive
same,KV 1.3 Efficacy (inhibition of thallium influx as a % of positive control),[1],78 ± 7%
same,IC50,hERG channel [2],1.9 µM
same,IC50,"hERG channel [4]; Confirmation IC50 (thallium influx, hERG)",4.9 ± 1.7 µM
same,IC50,hERG channel [4]; qHTS (two runs) IC50,7.5 ± 3.5 µM
CCCCCCCC[N+](CCCCCCCC)(CCCCCCCC)CCCCCCCC.[Br-] [tetra-n-octylammonium bromide],Selectivity Fold (hERG over KV1.3),[1],42 fold
same,KV 1.3 Efficacy (inhibition of thallium influx as a % of positive control),[1],72 ± 16%
same,Maximum inhibition of cell viability,[7]; [10],50%
same,IC50,[7]; [10],34 µM
same,IC50,"hERG channel [2]; read-out: IC50 in the patch clamp assay, as stated in abstract",0.08 µM
same,IC50,hERG channel [2]; [11],0.082 µM
same,qHTS (two runs) Efficacy (inhibition of thallium influx as a % of positive control),hERG channel [3],102 ± 4%
same,Confirmation Efficacy (inhibition of thallium influx as a % of positive control),hERG channel [4],100 ± 3%
"COc1ccc(CCN(C)CCCC(C#N)(c2ccc(OC)c(OC)c2)C(C)C)cc1OC (stereo not drawn) [verapamil, reference compound]",KV 1.3 Efficacy (inhibition of thallium influx as a % of positive control),[1],88 ± 12%
tricresyl phosphate,Selectivity Fold (hERG over KV1.3),[1],2.7 fold
same,KV 1.3 Efficacy (inhibition of thallium influx as a % of positive control),[1],68 ± 17%
same,IC50,hERG channel [2]; [11],8.8 µM
same,qHTS (two runs) Efficacy (inhibition of thallium influx as a % of positive control),hERG channel [3],82 ± 11%
same,Confirmation Efficacy (inhibition of thallium influx as a % of positive control),hERG channel [4],68 ± 16%
trixylenyl phosphate,Patch clamp IC50,hERG channel [2]; [9],did not inhibit hERG channel activity
same,IC50,hERG channel [2]; [11],> 100 µM
same,qHTS (two runs) Efficacy (inhibition of thallium influx as a % of positive control),hERG channel [3],67 ± 12%
same,Confirmation Efficacy (inhibition of thallium influx as a % of positive control),hERG channel [4],43 ± 15%
